Patent publication US12534449B2, “Stable crystalline hydrate of clazosentan disodium salt” (Idorsia Pharmaceuticals Ltd, priority 2020, dated 2026)
Counter-ions that a name gives are not always drawn.

Tests used:
[1] = Solubility of COMPOUND in water; settings: room temperature
[2] = Gravimetric vapor sorption (GVS) analysis; format: physicochemical; settings: for behaviour of water content with relative humidity (GVS): humidity scan; for water content (GVS) in equivalents of water: equilibrium / final water content
Protocol: Gravimetric vapor sorption analysis of form C was performed on a Hiden Isochema IGAsorp™ Model HAS-036-080. Approximately 20 mg of the sample was placed without any pre-treatment into a stainless-steel mesh sample holder. The measurement was run at 25° C. with changing the humidity in the order 40%-95%-0%-40% RH by steps of 5% RH and with maximum equilibration time of 24 h at each step. Gravimetric vapor sorption experiments for all the other hydrates disclosed herein were performed on a SPS 100n instrument from ProUmid GmbH & Co. KG. Typically, 10-20 mg of material were placed into tared aluminum pans without any pre-treatment. The measurements were again run at 25° C. and with changing the humidity in the order 20%-90%-0%-25% RH by steps of 5% and with maximum equilibration time of 24 h at each step. When plotting the data (see corresponding Figures), weight changes of one equivalent of water are indicated by dotted horizontal lines.

Row | SMILES | behaviour of water content with relative humidity (GVS) ([2]; 25° C.) | water content (GVS) in equivalents of water [2] | hydrate stoichiometry attributed from GVS water content / uptake ([2]; 25° C.) | further results
1 | COc1ccccc1Oc1c(NS(=O)(=O)c2ccc(C)cn2)nc(-c2ccnc(-c3nnn[nH]3)c2)nc1OCCO [COMPOUND, 5-methyl-pyridine-2-sulfonic acid N-{6-(2-hydroxy-ethoxy)-5-(2-methoxy-phenoxy)-2-[2-(1H-tetrazol-5-yl)-pyridin-4-yl]-pyrimidin-4-yl}-amide disodium salt] |  |  |  | solubility in water [1]: about 25 g in 100 mL
2 | COc1ccccc1Oc1c([N-]S(=O)(=O)c2ccc(C)cn2)nc(-c2ccnc(-c3nnn[n-]3)c2)nc1OCCO.[Na+].[Na+] [form C] | stable with a slight increase between 5% and 95% RH |  |  | behaviour of water content below 5% RH (GVS) ([2]; 25° C., below 5% RH): decreases dramatically; water content at the starting point (GVS) ([2]; 40% RH, 25° C., dry basis): 14%
3 | COc1ccccc1Oc1c([N-]S(=O)(=O)c2ccc(C)cn2)nc(-c2ccnc(-c3nnn[n-]3)c2)nc1OCCO.[Na+].[Na+] [form E] |  | approx. 1 equivalents |  | water content at equilibrium (GVS scan) ([2]; 25° C.): 3%
4 | COc1ccccc1Oc1c([N-]S(=O)(=O)c2ccc(C)cn2)nc(-c2ccnc(-c3nnn[n-]3)c2)nc1OCCO.[Na+].[Na+] [form L] |  | 3 equivalents |  | final water content (GVS experiment) ([2]; dried at 0% RH, then re-humidified at 40% RH): about 8%
5 | COc1ccccc1Oc1c([N-]S(=O)(=O)c2ccc(C)cn2)nc(-c2ccnc(-c3nnn[n-]3)c2)nc1OCCO.[Na+].[Na+] [form N] | noticeable adsorption of excess water with increasing relative humidity |  | tetrahydrate | 
6 | COc1ccccc1Oc1c([N-]S(=O)(=O)c2ccc(C)cn2)nc(-c2ccnc(-c3nnn[n-]3)c2)nc1OCCO.[Na+].[Na+] [form P] |  |  | trihydrate | 
